Like-named read-outs stand apart in the source and are kept apart here. Residues, ends and D or L forms follow the SMILES beside them. No end group written: not given here.

Consider ten compounds from publication PMC11366520, “Purification of angiotensin converting enzyme inhibitory peptides and antihypertensive effect generated from Indonesian traditional fermented beef (Cangkuk)” (Animal Bioscience, 2024).

The target in assay [1] is T1, Angiotensin converting enzyme (from rabbit lung) (Oryctolagus cuniculus, UniProt P12822).
T1 construct: Angiotensin converting enzyme (from rabbit lung); purchased Sigma-Aldrich Co. (St. Louis, MO, USA); host or cells: rabbit lung (tissue-derived)
T1 sequence (P12822 34-1310): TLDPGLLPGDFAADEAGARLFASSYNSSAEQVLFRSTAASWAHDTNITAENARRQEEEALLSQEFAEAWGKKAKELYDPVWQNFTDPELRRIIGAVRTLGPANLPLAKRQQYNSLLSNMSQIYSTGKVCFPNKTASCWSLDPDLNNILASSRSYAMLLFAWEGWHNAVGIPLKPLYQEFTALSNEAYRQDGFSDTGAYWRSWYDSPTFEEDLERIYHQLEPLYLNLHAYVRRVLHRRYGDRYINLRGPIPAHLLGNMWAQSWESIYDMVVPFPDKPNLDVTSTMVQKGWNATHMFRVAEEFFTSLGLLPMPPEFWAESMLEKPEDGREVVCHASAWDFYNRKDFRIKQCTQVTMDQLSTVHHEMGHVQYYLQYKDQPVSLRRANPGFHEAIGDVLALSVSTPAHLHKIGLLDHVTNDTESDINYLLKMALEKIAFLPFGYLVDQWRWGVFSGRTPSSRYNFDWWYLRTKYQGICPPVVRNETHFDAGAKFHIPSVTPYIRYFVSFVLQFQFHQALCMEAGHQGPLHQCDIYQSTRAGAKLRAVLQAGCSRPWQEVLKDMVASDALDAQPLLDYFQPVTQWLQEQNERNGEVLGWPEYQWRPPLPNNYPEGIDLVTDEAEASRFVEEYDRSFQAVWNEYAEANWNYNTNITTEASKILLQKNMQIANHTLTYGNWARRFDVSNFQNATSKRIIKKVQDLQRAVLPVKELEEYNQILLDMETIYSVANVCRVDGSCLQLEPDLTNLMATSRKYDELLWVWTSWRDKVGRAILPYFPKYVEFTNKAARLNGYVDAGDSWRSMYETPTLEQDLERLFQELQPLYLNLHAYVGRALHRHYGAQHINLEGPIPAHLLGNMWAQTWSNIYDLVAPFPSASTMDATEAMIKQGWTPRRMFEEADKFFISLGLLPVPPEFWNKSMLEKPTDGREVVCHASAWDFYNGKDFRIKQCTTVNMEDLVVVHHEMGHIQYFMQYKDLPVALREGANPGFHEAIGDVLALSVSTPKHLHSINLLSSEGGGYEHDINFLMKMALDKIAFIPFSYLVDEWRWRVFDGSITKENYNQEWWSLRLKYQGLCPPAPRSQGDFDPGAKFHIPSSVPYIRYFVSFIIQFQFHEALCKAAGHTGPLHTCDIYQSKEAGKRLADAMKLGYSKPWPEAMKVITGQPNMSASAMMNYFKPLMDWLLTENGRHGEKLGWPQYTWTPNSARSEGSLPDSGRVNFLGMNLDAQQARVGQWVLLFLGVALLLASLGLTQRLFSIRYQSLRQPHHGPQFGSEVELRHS
Kind of assay: ACE-inhibitory activity, hippuric acid liberated from Hip-His-Leu (Cushman and Cheung, modified). Format: biochemical. Particulars: synthetic peptides, purity 80%, sodium borate buffer pH 8.3, Hip-His-Leu 7.6 mM, NaCl 608 mM, pre-incubation 5 min, incubation 30 min, 37°C, 228 nm. From the text: The raw materials used in processing Cangkuk were fresh beef meat (brisket) from male Bali cattle, aged 2.5 to 3 years, purchased from the Animal Slaughtering House in Pekanbaru City. Green bamboo shoots were harvested from local farms. The additional ingredients were cooked rice, salt and distilled water. Angiotensin converting enzyme (from rabbit lung) and the substrate, hippuryl-L-histidyl-leucine, were purchased from Sigma-Aldrich Co. (St. Louis, MO, USA). All the chemicals and reagents used were of analytical grade.
ACE-inhibitory activity was analyzed according to the method of Cushman and Cheung with modifications by Arihara et al. This assay is based on liberation of hippuric acid from Hip-His-Leu catalyzed by ACE. A sample solution (15 μL) was mixed with 125 μL of a 100 mM sodium borate buffer (pH 8.3) containing 7.6 mM Hyp-Hys-Leu and 608 mM NaCl followed by pre-incubation for 5 min at 37°C. The reaction was initiated by adding 50 μL of ACE dissolved in distilled water, and the mixture was incubated for 30 min at 37°C. The reaction was stopped by adding 125 μL of 1 N HCl. […] Hippuric acid was dissolved with 1 mL of distilled water and its concentration spectrophotometrically determined at 228 nm. ACE inhibitory activity was calculated as: […]
where A, absorbance of the sample reaction; B, absorbance of the blank; and C, absorbance of the control (distilled water).

For another assay, the system named is ACE. The following applies: cited from earlier work; for IC50: read-out: IC50 value (ACE inhibition). As for the experimental part:
According to a previous study, “Cangkuk” is made from fresh beef to which bamboo shoots, rice and salt are added. The treatment evaluated in the current research was addition of bamboo shoots with different preparation methods (chopped, ground, and extracted) and varied meat:bamboo shoot ratios (1:0.75, 1:1, and 1:1.25). Then, these preparations were fermented under anaerobic conditions at room temperature for seven days. It was reported that all treatments had ACE-inhibitory activities ranging from 43% to 80%. […] EAPLNPKANR, is a fragment of the 3rd to 12th amino acid sequence of LTEAPLNPKANREK [25]. […] The presence of hydrophobic amino acids such as isoleucine, valine, and glycine in the sequence has been associated with ACE-inhibitory activity.

For another assay, the system named is SHRs. Particulars: cited from earlier work. An excerpt: Meat and meat products are excellent sources of ACE-inhibitory peptides. ACE-inhibitory peptides from animal proteins can be produced by several methods, including enzymatic hydrolysis and fermentation. […] The higher the dose, the greater the decrease in SBPs. […] There is strong association between ACE inhibition and the antihypertensive effects of a bioactive peptide owing to its structure, size, chain length, type and order of amino acids ... || (+ 1 further places)

For assay [2] the following is noted: pepsin hydrolyzed peptides from porcine skeletal myosin B; ref [9]; cited from earlier work. From the text:
Meat and meat products are excellent sources of ACE-inhibitory peptides. ACE-inhibitory peptides from animal proteins can be produced by several methods, including enzymatic hydrolysis and fermentation. […] The pepsin hydrolyzed peptide Lys-Arg-Val-Ile-Gln-Try and the Val-Lys-Ala-Gly-Ph sequence from por ...

As for `CC[C@H](C)[C@H](N)C(=O)N[C@H](C(=O)NCC(=O)O)C(C)C` [IVG] (H-Ile-Val-Gly-OH), in assay [1], the 50% inhibitory concentration (IC50) was 97.3 µM.
As to EAPLNPKANR [EAPLNPKANR], in assay [1], the concentration for half-maximal inhibition (IC50) came out at 44.6 µM.
As to IKEVTER, the “ACE-inhibitory activity (in words)” value in the assay with ACE (peptide from venison treated with pepsin-trypsin-pancreatin, ref [28]) is reported as “strong ACE-inhibitory activity”.
As to “IVDR [tetrapeptide from Paralichthys olivaceus surimi]”, the “ACE inhibitory activity (in words)” value in the assay on ACE (tetrapeptide from Paralichthys olivaceus surimi, ref [31]) is reported as “high ACE inhibitory activity”. Besides, the “decrease of blood pressure in SHRs (in words)” value in the assay with SHRs (6 h after administration, ref [31]) was “could decrease blood pressure in SHRs 6 h after its administration”.
For IVGRPRHQG, the IC50 in the assay with ACE (nonapeptide from Katsuobusi, ref [26]) is 6.2 µM.
As for “LIVGIIRCV [nonapeptide from beef myofibrillar protein hydrolysate]”, in the assay with SHRs (alkaline-AK-pepsin hydrolyzed peptide from beef myofibrillar protein, ref [8]), the “antihypertensive effect in SHRs (in words)” value was “had an antihypertensive effect in SHRs”.
On to LTEAPLNPKANREK, for which the half-inhibitory concentration (IC50) in the assay with ACE (peptide from goat meat hydrolysate (pepsin, trypsin, chymotrypsin), ref [25]) is 120 µM.
As to “Lys-Arg-Val-Ile-Gln-Try [pepsin hydrolyzed peptide from porcine skeletal myosin B]”, in assay [2], the “antihypertensive effects in vivo (in words)” value is reported as “showed antihypertensive effects in vivo”.
With Val-Lys-Ala-Gly-Ph, the “antihypertensive effects in vivo (in words)” value in assay [2] is “showed antihypertensive effects in vivo”.
For WGAP, the “reduction of SBP” value in the assay with SHRs (100 mg/kg BW oral, SHRs, 4 h after administration, ref [33]) is “up to 42.6 mmHg”.

What is called IC50 is the concentration needed to halve the response being measured.
